The values that follow come from PubChem BioAssay (NCI).

Test systems include MDA-MB-435; HCT-15 colon; SN12C renal; HL-60(TB) leukemia; K-562 leukemia; UACC-257 melanoma; MOLT-4 leukemia; SW-620 colon; T-47D breast; SNB-19 CNS; UO-31 renal; NCI-H460 lung; IGROV1 ovarian; HOP-62 NSCLC; A549 NSCLC; HT29 colon; HOP-92 NSCLC; MDA-N; NCI-H226 lung; COLO 205 colon.
Experiment in all cases: NCI tumour cell line growth inhibition, 48 h

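Exposure lasted 48 hours, with cells grown in 96-well plates and compounds tested at five concentrations. At the TGI there is no net growth.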

On to `CC(=O)C(=[N+]=[N-])C(=O)N(C)CCC#N`, for which the TGI in the experiment on MDA-MB-435, in the experiment with HCT-15 colon, in the experiment on SN12C renal, in the experiment with HL-60(TB) leukemia, in the experiment with K-562 leukemia and with UACC-257 melanoma was over 10 µM in each case. In addition, the TGI with MOLT-4 leukemia, in the experiment with SW-620 colon, in the experiment on T-47D breast, with SNB-19 CNS, in the experiment on UO-31 renal and in the experiment on NCI-H460 lung was over 10 µM throughout. Besides, the TGI in the experiment on IGROV1 ovarian, in the experiment with HOP-62 NSCLC, in the experiment on A549 NSCLC, with HT29 colon, with HOP-92 NSCLC and with MDA-N was over 10 µM throughout. Further, the TGI in the experiment with NCI-H226 lung is over 10 µM.

Regarding `O=C(O)c1ccc(Nc2nc3cc(C(F)(F)F)ccc3n3cccc23)cc1`, the TGI is over 100 µM in the experiment with MDA-MB-435; over 100 µM with HCT-15 colon; over 100 µM with HL-60(TB) leukemia; 67.7 µM in the experiment on K-562 leukemia; 71.6 µM in the experiment with UACC-257 melanoma; 67.7 µM in the experiment on MOLT-4 leukemia. Also, the TGI is over 100 µM with SW-620 colon; 37 µM in the experiment on COLO 205 colon; 70.4 µM in the experiment on T-47D breast; over 100 µM in the experiment with SNB-19 CNS; over 100 µM with UO-31 renal; 38.7 µM with NCI-H460 lung. In addition, the TGI in the experiment on IGROV1 ovarian was over 100 µM; in the experiment with HOP-62 NSCLC, over 100 µM; in the experiment with A549 NSCLC, over 100 µM; with HT29 colon it was 30.9 µM; in the experiment on HOP-92 NSCLC, over 100 µM; with MDA-N, over 100 µM.

Consider `COc1ccccc1NCc1cccc2c(=O)c3ccc(Cl)cc3oc12`, for which the TGI with MDA-MB-435 was over 100 µM; in the experiment with HCT-15 colon, over 100 µM; with SN12C renal, over 100 µM; in the experiment on HL-60(TB) leukemia, 64 µM; with K-562 leukemia, over 100 µM; in the experiment on UACC-257 melanoma, over 100 µM. The TGI with MOLT-4 leukemia, in the experiment on SW-620 colon, with COLO 205 colon, with T-47D breast, with SNB-19 CNS and in the experiment with UO-31 renal was over 100 µM throughout. The TGI with IGROV1 ovarian, in the experiment with HOP-62 NSCLC, with A549 NSCLC, in the experiment with HT29 colon, in the experiment with HOP-92 NSCLC and in the experiment on MDA-N was over 100 µM throughout. In the experiment on NCI-H226 lung, the TGI was over 100 µM.

With `CCOC(=O)C(C)c1nc2ccc(C(F)(F)F)cc2[nH]c1=O` (stereo not given), the TGI in the experiment with MDA-MB-435, in the experiment with HCT-15 colon, in the experiment on SN12C renal, with HL-60(TB) leukemia, in the experiment with K-562 leukemia and in the experiment on UACC-257 melanoma was over 100 µM throughout. The TGI was over 100 µM in the experiment on MOLT-4 leukemia; over 100 µM in the experiment on SW-620 colon; over 100 µM with COLO 205 colon; 69.9 µM in the experiment with T-47D breast; over 100 µM in the experiment with SNB-19 CNS; over 100 µM with UO-31 renal. Besides, the TGI with NCI-H460 lung, in the experiment on HOP-62 NSCLC, with A549 NSCLC, in the experiment on HT29 colon, in the experiment on HOP-92 NSCLC and with MDA-N was over 100 µM in each case. The compound further had a TGI in the experiment with NCI-H226 lung of over 100 µM.

Turning to `Cc1ccc(NC(=O)/C(=N/N(C)C)C(C2OC(=O)c3ccccc32)[N+](=O)[O-])cc1` (stereo not given), the TGI in the experiment with MDA-MB-435, in the experiment on HCT-15 colon, in the experiment on SN12C renal, in the experiment on HL-60(TB) leukemia, in the experiment with K-562 leukemia and with UACC-257 melanoma was over 100 µM throughout. Also, the TGI in the experiment on MOLT-4 leukemia, with SW-620 colon, in the experiment with T-47D breast, in the experiment on UO-31 renal, with NCI-H460 lung and with HOP-62 NSCLC was over 100 µM throughout. Also, the TGI in the experiment with A549 NSCLC, with HT29 colon, with HOP-92 NSCLC, in the experiment with MDA-N and in the experiment on NCI-H226 lung was over 100 µM in each case.

As to `CCOC(=O)C(O)(C(=O)OCC)c1cc(C(C)(C)C)c(O)c(C(C)(C)C)c1`, the TGI in the experiment on MDA-MB-435 is over 100 µM; in the experiment with HCT-15 colon, over 100 µM; in the experiment with SN12C renal, over 100 µM; in the experiment with HL-60(TB) leukemia it was 98.2 µM; in the experiment with K-562 leukemia, over 100 µM; in the experiment with UACC-257 melanoma it was over 100 µM. The TGI in the experiment on MOLT-4 leukemia is over 100 µM; in the experiment with SW-620 colon it was over 100 µM; in the experiment on COLO 205 colon, 90.1 µM; in the experiment on T-47D breast, over 100 µM; with SNB-19 CNS it was 74.6 µM; in the experiment on UO-31 renal, over 100 µM. The TGI in the experiment with IGROV1 ovarian, with HOP-62 NSCLC, in the experiment with A549 NSCLC, in the experiment on HT29 colon, in the experiment on HOP-92 NSCLC and with MDA-N was over 100 µM in each case. This compound registered a TGI in the experiment with NCI-H226 lung of over 100 µM.

Consider `CC[C@H](C)C1=C(O)[N@+]2([O-])Oc3ccc(-c4c(O)c(O)c(-c5ccc(O)cc5)c(OC(C)=O)c4OC(C)=O)cc3O[C@]2([C@@H](C)CC)C(=O)N1O`, for which the TGI in the experiment with MDA-MB-435, in the experiment on HCT-15 colon, in the experiment on SN12C renal, with HL-60(TB) leukemia, in the experiment with K-562 leukemia and in the experiment on UACC-257 melanoma was over 50 µM throughout. Besides, the TGI in the experiment with MOLT-4 leukemia, with SW-620 colon, in the experiment with COLO 205 colon, in the experiment on T-47D breast, in the experiment on SNB-19 CNS and in the experiment on UO-31 renal was over 50 µM throughout. Moreover, the TGI was over 50 µM in the experiment with NCI-H460 lung; 28.2 µM in the experiment on IGROV1 ovarian; over 50 µM in the experiment on HOP-62 NSCLC; over 50 µM in the experiment on A549 NSCLC; over 50 µM in the experiment with HT29 colon; 32.1 µM in the experiment with HOP-92 NSCLC. In addition, in the experiment on MDA-N, the TGI is over 50 µM.

`COP(=O)(OC)/C(=C/c1cn(C(c2ccccc2)(c2ccccc2)c2ccccc2)cn1)NC=O`: the TGI with MDA-MB-435 was 40.1 µM; in the experiment with HCT-15 colon, 99.4 µM; in the experiment with SN12C renal, 46.4 µM; in the experiment with HL-60(TB) leukemia, over 100 µM; in the experiment with K-562 leukemia, over 100 µM; in the experiment on MOLT-4 leukemia, over 100 µM. Further, the TGI in the experiment with SW-620 colon was 78.1 µM; with COLO 205 colon, 32.9 µM; with T-47D breast it was over 100 µM; in the experiment on SNB-19 CNS it was over 100 µM; in the experiment on UO-31 renal, over 100 µM; with NCI-H460 lung it was 34.9 µM. Further, the TGI with IGROV1 ovarian is 44.1 µM; in the experiment with HOP-62 NSCLC, 35.9 µM; in the experiment on A549 NSCLC, over 100 µM; in the experiment with HT29 colon, 33.8 µM; with HOP-92 NSCLC it was 68 µM; in the experiment with MDA-N, 51.4 µM. Also, the TGI in the experiment on NCI-H226 lung stood at 98.9 µM.

With `O=C(Nc1nnc(-c2c(Cl)c(Cl)c(Cl)c(Cl)c2-c2nc3cc(C(=O)c4ccccc4)ccc3[nH]2)o1)c1ccc(Cl)cc1`, the TGI in the experiment with MDA-MB-435 was over 100 µM; in the experiment on HCT-15 colon, over 100 µM; in the experiment on SN12C renal, 53 µM; with HL-60(TB) leukemia, over 100 µM; with K-562 leukemia it was over 100 µM; in the experiment with UACC-257 melanoma, over 100 µM. The TGI is over 100 µM with MOLT-4 leukemia; over 100 µM in the experiment on SW-620 colon; 35.1 µM with COLO 205 colon; over 100 µM with T-47D breast; over 100 µM with SNB-19 CNS; over 100 µM with UO-31 renal. Moreover, the TGI was over 100 µM in the experiment with IGROV1 ovarian; 67.5 µM with HOP-62 NSCLC; over 100 µM with A549 NSCLC; over 100 µM in the experiment on HT29 colon; over 100 µM in the experiment with HOP-92 NSCLC; 54.2 µM with MDA-N. In the experiment with NCI-H226 lung, this compound gave a TGI of over 100 µM.

As to `COC(=O)/C=C\C(C#N)(C#N)N=Cc1sccc1C`, the TGI in the experiment with MDA-MB-435 was 9.84 µM; in the experiment on HCT-15 colon it was 4.57 µM; with SN12C renal, 22.3 µM; with HL-60(TB) leukemia, 4.45 µM; with K-562 leukemia, over 100 µM; in the experiment on UACC-257 melanoma, 23.3 µM. For the same compound, the TGI came to 3.88 µM with SW-620 colon; 2.53 µM in the experiment on COLO 205 colon; 5.92 µM in the experiment on T-47D breast; 33.8 µM with SNB-19 CNS; 3.51 µM with UO-31 renal; 31.4 µM in the experiment with NCI-H460 lung. For the same compound, the TGI in the experiment on IGROV1 ovarian came out at 29 µM; in the experiment on HOP-62 NSCLC, 27.8 µM; with A549 NSCLC, 29.6 µM; in the experiment with HT29 colon, 3.31 µM; in the experiment on HOP-92 NSCLC, 3.9 µM; with MDA-N it was 15.1 µM. In the experiment on NCI-H226 lung, this compound came in with a TGI of 13.2 µM.

Regarding `CN(C(=O)Cc1cc(Cl)c(Cl)cc1NC(=O)CN)[C@H]1CCCC[C@@H]1N1CCCC1`, the TGI was 32.6 µM with MDA-MB-435; over 100 µM with HCT-15 colon; over 100 µM in the experiment on SN12C renal; 52.7 µM with HL-60(TB) leukemia; 57.5 µM in the experiment with K-562 leukemia; 33.9 µM with UACC-257 melanoma. Further, the TGI is over 100 µM in the experiment with MOLT-4 leukemia; over 100 µM in the experiment with SW-620 colon; 98.4 µM in the experiment on T-47D breast; over 100 µM in the experiment with SNB-19 CNS; over 100 µM in the experiment with UO-31 renal; over 100 µM in the experiment with NCI-H460 lung. Also, the TGI in the experiment on IGROV1 ovarian is over 100 µM; in the experiment with HOP-62 NSCLC, over 100 µM; in the experiment with A549 NSCLC, over 100 µM; with HT29 colon it was 58.7 µM; with HOP-92 NSCLC, over 100 µM; in the experiment on MDA-N, 31.7 µM.
